The record followed here is patent US5405857A, “3-substituted 1,2,3,4,-oxatriazole-5-imine compounds, a process for the preparation thereof and a pharmaceutical preparation containing said compounds” (A/S GEA Farmaceutisk Fabrik, priority 1991, dated 1995).

The target of series [1] is T1, soluble guanylate cyclase (Homo sapiens, UniProt Q02153).
T1 construct: The guanylate cyclase activity in the supernatant after incubation with and without the test substance; endogenous in cells; host or cells: human blood platelets, supernatant of homogenate
T1 sequence (Q02153 1-619): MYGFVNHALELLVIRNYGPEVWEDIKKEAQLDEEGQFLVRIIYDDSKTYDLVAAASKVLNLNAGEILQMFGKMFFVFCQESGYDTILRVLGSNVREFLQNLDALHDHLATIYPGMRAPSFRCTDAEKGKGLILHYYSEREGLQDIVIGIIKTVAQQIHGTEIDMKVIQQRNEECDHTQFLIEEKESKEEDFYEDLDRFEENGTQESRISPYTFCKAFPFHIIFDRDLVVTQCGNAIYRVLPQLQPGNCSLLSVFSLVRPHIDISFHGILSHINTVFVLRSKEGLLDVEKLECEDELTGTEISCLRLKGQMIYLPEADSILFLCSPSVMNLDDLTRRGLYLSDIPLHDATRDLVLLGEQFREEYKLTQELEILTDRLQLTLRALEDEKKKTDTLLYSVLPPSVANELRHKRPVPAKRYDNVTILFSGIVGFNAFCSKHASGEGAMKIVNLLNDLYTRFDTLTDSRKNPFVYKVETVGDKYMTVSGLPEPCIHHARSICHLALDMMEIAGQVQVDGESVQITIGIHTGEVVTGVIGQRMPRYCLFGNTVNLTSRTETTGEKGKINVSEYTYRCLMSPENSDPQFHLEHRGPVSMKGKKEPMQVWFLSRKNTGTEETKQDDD
T1 sequence (Q02108 1-690 partner): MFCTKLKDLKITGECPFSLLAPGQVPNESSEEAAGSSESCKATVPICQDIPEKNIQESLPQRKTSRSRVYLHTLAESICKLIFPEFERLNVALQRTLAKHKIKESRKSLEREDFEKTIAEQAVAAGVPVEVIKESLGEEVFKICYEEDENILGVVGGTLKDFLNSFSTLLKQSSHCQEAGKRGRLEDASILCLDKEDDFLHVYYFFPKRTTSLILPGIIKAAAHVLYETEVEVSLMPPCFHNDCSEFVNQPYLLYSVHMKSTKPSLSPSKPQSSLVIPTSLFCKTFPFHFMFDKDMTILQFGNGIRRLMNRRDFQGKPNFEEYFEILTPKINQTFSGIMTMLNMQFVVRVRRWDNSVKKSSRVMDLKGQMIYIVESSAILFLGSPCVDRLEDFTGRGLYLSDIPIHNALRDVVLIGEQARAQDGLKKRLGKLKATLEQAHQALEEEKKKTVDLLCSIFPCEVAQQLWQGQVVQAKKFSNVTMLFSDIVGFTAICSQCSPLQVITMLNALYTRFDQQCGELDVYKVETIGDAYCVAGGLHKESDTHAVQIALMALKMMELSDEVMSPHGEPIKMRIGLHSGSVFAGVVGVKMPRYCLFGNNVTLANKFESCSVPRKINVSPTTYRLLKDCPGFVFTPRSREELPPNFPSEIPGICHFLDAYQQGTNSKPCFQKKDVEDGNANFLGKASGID
Description: Stimulation of guanylate cyclase from blood platelets (RIA). The settings on record: 37° C. It counts as biochemical.

In another series the test system is blood platelets. In words: Inhibition of blood platelet aggregation (aggregometer, ADP). It counts as cell-based, human (healthy testees). Conditions: for IC50: Platelet, 0.05 h, read-out: IC50 (Inhibition of blood platelet aggregation). The protocol:
Compounds according to the invention were tested for their inhibition of clumping together (aggregation) of blood platelets (thrombocytes), which is the first phase of the formation of blood clots (thrombi). Such an inhibition may prevent the formation of blood clots and inhibit the development of new thrombi after a diagnosed thrombus.
Citrate stabilized ( 0.38% of sodium citrate, final concentration) venous blood from healthy testees is used, who have not used medicine for at least 8 days. Slight centrifugation (160×g for 10 minutes) results in PRP (blood plasma rich in platelets) which is pipetted. PPP (blood plasma poor in platelets) is obtained by an intense centrifugation (3000×g for 10 minutes) of the remaining blood. The light transmission is measured by the aggregometer (CHRONOLOG). PRP allows nearly no light transmitaaion, while PPP allows complete transmission of light. The PRP is placed in the aggregometer at 37° C. while being stirred by a magnet. Addition of a pro-aggregating substance causes the PRP to aggregate gradually and an increasing light transmission takes place at the same time. At complete aggregation a light transmission corresponding to PPP is obtained. Adnosine diphosphate (ADP) is used as pro-aggregating substance, said substance representing a basic biochemical mechanism for aggregation of blood platelets. The test substances are incubated for 3 minutes in PRP placed in the aggregometer at 37° C. during magnetic stirring. A predetermined positively aggregating dosage of adenosine diphosphate (ADP) (2 to 4 μM) is then added. […] A so-called IC50 -value (that is the concentration inhibiting the aggregation by 50% relative to the control aggregation) is calculated for each test substance by linear regression analysis (log concentration μM as constant ad abscissa and % inhibition as variable ad ordinate). The following known reference substances have been used: nitroglycerine (GTN), sodium nitroprusside (NNP) and SIN-1 (the active metabolite of molsidomine).

For a further series, the system named is PAI-1. In words: Inhibition of plasminogen activator inhibitor (PAI-1) from blood platelets (fibrinolytic activity). The format is cell-based, human. The settings on record: 50 μM, 60 minutes; for % Inhibition of PAI-1 activity: compared to control; for PAI-1 activity: human PRP, control 3.24. The method, then:
Compounds according to the invention were tested for their inhibition of plasminogen activator inhibitor (PAI). An established thrombus comprises aggregated platelets cohered by fibrin. The organism has a fibrinolyric system for maintaining normal physiological conditions. Endogenous plasminogen is activated to plasmin (fibrinolysin, that is a proteolytic enzyme decomposing fibrin) by means of a tissue plasminogen activator (t-PA). The platelets include the enzyme PAI-1 inhibiting the activation of plasminogen to plasmin, and thus also the decomposition of fibrin.
A general stimulation of the fibrinolytic system can cause serious hemostatic side effects (haemorrhages). A specific inhibition of PAI-1 induces an increased fibrinolysis in areas with many platelets, which is exactly the case in thrombi. As a result a thrombolytic effect is obtained.
Human PRP prepared by slight centrifugation as previously mentioned is used, but at a low temperature (4° C.). By incubation of PRP (1 ml in a plastic tube) during a slight shaking at 37° C. the PAI-1 activity is liberated, said PAI-1 activity being measured spectrophotometrically by means of a two-step procedure using commercial kits (Spectrolyse™/fibrin kit from BIOPOOL, Sweden).
The PAI-1 activity of the control PRP and PRP incubated with each of 6 compounds according to the invention and the reference substance sodium niroprusside (NNP) (50 μM of each for 60 minutes) appear from Table 6.

A further series deals with male rats. Conditions: rat, in vivo, po, 20 mg/kg. The method, then:
Two tests were carried out on male rats, namely a determination of the "maximum tolerable dose" (MTD) and a test using multiple peroral doses. In addition, a LD50 test was carried out intravenously on mice.
At this test the substances were administered perorally in a dose of 20 mg per kg. as solutions or suspensions once a day for 5 days to groups of 5 animals. Clinical observations were made every day and the above hematological parameters were measured on the third day of the test.

In series [2] the test system is polymorph nuclear leukocytes (PMNs), c-GMP. In words: Stimulation of c-GMP content in PMNs. The format is cell-based, human. Conditions: 37° C., 10 minutes. The method, then: Compounds according to the invention were tested for their ability to increase the content of cyclic guanosine monophosphate (c-GMP), to inhibit the synthesis of the leukotriene B4 (LTB4), and to inhibit the chemotactical movement of polymorph nuclear leukocytes (PMN). The polymorph nuclear leukocytes play a vital part in the cellular part of the inflammation process. At diseases, such as asthma, the mucuos membrane of the respiratory passages is swollen as a result of an inflammation with a significant infiltration of polymorph nuclear leukocytes (PMN's) in particular. Particularly effective substances for the treatment of asthma are such which in addition to relaxing the musculature in the respiratory passages also have an anti-inflammatory effect on the cellular phase of the inflammatory process, that is inhibiting the leukocyte function.
Isolated human PMNs are incubated at 37° C. for 10 minutes, whereafter the content of cyclic guanosine monophosphate (c-GMP) is measured. Further, the synthesis of the LTB4 is determined after stimulation with Ca-ionophore (A23187) and the chemotaxis (controlled movement) towards FMLP (a substance attracting the polymorph nuclear leukocytes, PMNs) is determined.
Three compounds according to the invention and the reference substance SIN-1 were tested for their ability to stimulate the content of cyclic guanosine monophosphate (c-GMP).

Where [3] appears, read: human PRP, ADP 2 to 4 μM, 3 min incubation, 37° C.

Counter-ions that a name gives are not always drawn. Like-named read-outs stand apart in the source and are kept apart here.

Consider `[NH-]c1n[n+](-c2ccccc2C(F)(F)F)no1` [Example 2], for which the Guanylate cyclase activity is recorded as 411 pmole c-GMP/mg prot. × 15 minutes in series [1] (0.01 μM) and 37920 pmole c-GMP/mg prot. × 15 minutes in series [1] (10 μm (so in the source)).
For `[NH-]c1n[n+](-c2cccc(C(F)(F)F)c2)no1` [Example 3, 3-(3-trifluoromethylphenyl)-1,2,3,4-oxatriazole-5-imine hydrochloride] the same measures were 2499 pmole c-GMP/mg prot. × 15 minutes and 47529 pmole c-GMP/mg prot. × 15 minutes.
In the case of `N#Cc1cccc(-[n+]2noc([NH-])n2)c1` [Example 7], the IC50 in the series with blood platelets (setting [3]) is 100 nM.
Regarding `N#Cc1ccc(-[n+]2noc([NH-])n2)cc1` [Example 8], the Guanylate cyclase activity in series [1] (0.01 μM) is listed as 897 pmole c-GMP/mg prot. × 15 minutes. For the same compound, the Guanylate cyclase activity in series [1] (10 μm (so in the source)) was 64192 pmole c-GMP/mg prot. × 15 minutes. Further, in the series with PAI-1, the “% Inhibition of PAI-1 activity” value was 44% and the PAI-1 activity amounted to 1.83 U/10^8 platelets.
For `[NH-]c1n[n+](-c2ccc(Cl)c(C(F)(F)F)c2)no1` [Example 18], in the series on blood platelets (Homo sapiens), the IC50 came out at 540 nM. Moreover, in the series on PAI-1, the “% Inhibition of PAI-1 activity” value came to 40% and the PAI-1 activity is 1.93 U/10^8 platelets.
For the compound `[NH-]c1n[n+](-c2cccc(Cl)c2Cl)no1` [Example 21, 3-(2-chloro-3-chlorophenyl)-1,2,3,4-oxatriazole-5-imine], in the series on male rats, the Clinical observations entry was “N.R”, the Hematological parameters entry is listed as “N.R” and the “Side effects (in words)” value was “no side effects”.
Take `[NH-]c1n[n+](-c2c(Cl)cccc2Cl)no1` [Example 23]: the values for the Guanylate cyclase activity in series [1] (0.01 μM) and in series [1] (10 μm (so in the source)) were 383 pmole c-GMP/mg prot. × 15 minutes and 76915 pmole c-GMP/mg prot. × 15 minutes, respectively.
As to `[NH-]c1n[n+](-c2ccc(Cl)c(Cl)c2)no1` [Example 24], the “c-GMP in PMNs” value in series [2] (1 μM) stood at 391 fmole/10^6 cells; in series [2] (10 μM) it was 965 fmole/10^6 cells; in series [2] (100 μM) it was 1078 fmole/10^6 cells. Besides, the Guanylate cyclase activity in series [1] (0.01 μM) is reported as 2374 pmole c-GMP/mg prot. × 15 minutes; in series [1] (10 μm (so in the source)) it was 59716 pmole c-GMP/mg prot. × 15 minutes. Moreover, the “% Inhibition of PAI-1 activity” value with PAI-1 was found to be 34%. In addition, the PAI-1 activity in the series on PAI-1 amounted to 2.14 U/10^8 platelets.
On to `[NH-]c1n[n+](-c2ccc(Cl)cc2F)no1` [Example 26], for which, in the series with male rats, the Clinical observations result is “N.R”, the Hematological parameters entry is given as “N.R” and the “Side effects (in words)” value was “no side effects”.
With `O=C([N-]c1n[n+](-c2cccc(C(F)(F)F)c2)no1)c1cccnc1` [Example 34], the IC50 in the series on blood platelets (setting [3]) was 190 nM.
As to `O=C([N-]c1n[n+](-c2ccc(Cl)cc2Cl)no1)c1cccnc1` [Example 43], in the series with male rats, the Clinical observations entry is “N.R”, the Hematological parameters result is given as “N.R” and the “Side effects (in words)” value is “no side effects”.
As to `O=C([N-]c1n[n+](-c2cccc(C(F)(F)F)c2)no1)c1ccncc1` [Example 50], in the series on blood platelets (setting [3]), the IC50 was found to be 90 nM. In addition, in the series on male rats, the Clinical observations entry is recorded as “N.R”, the Hematological parameters entry is “N.R” and the “Side effects (in words)” value was “no side effects”.
In the case of `Cc1c(Cl)cccc1-[n+]1noc([N-]C2CCCCC2)n1` [Example 63], the values for the Guanylate cyclase activity in series [1] (0.01 μM) and in series [1] (10 μm (so in the source)) were 1761 pmole c-GMP/mg prot. × 15 minutes and 72730 pmole c-GMP/mg prot. × 15 minutes, respectively.
Turning to `O=[N+]([O-])OCC(CO[N+](=O)[O-])O[N+](=O)[O-]` [GTN, nitroglycerine, reference compound], the “Inhibition of blood platelet aggregation (in words)” value with blood platelets (ADP, PRP) was “inactive”. In the series with blood platelets (setting [3]), the IC50 worked out at 100000 nM.
